Results as given in BindingDB's records for PubMed 10565829 (Loughborough University, 1999).

Legend:
Mu-type opioid receptor = Mu-type opioid receptor (Cavia porcellus, UniProt P97266)
[1] = target: Kappa-type opioid receptor (Cavia porcellus, UniProt P41144)
Sequence of Kappa-type opioid receptor (P41144 whole entry): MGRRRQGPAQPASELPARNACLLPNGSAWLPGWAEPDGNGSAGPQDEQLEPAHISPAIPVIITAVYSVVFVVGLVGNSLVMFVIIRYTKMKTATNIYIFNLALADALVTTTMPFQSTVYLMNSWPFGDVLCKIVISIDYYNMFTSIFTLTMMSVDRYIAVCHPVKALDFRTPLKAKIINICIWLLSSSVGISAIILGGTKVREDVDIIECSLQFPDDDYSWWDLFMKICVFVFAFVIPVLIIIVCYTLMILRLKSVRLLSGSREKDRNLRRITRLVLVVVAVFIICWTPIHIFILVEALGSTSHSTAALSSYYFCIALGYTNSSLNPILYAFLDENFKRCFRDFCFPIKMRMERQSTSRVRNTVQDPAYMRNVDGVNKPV

Sequence of Mu-type opioid receptor (P97266 whole entry): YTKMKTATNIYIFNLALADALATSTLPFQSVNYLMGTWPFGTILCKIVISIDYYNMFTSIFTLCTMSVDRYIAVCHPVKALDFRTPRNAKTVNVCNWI

Compound: CO[C@@]12CC[C@@]3(C[C@@H]1[C@@](C)(O)C(C)(C)C)[C@H]1Cc4ccc(O)c5c4[C@@]3(CCN1CC1CC1)[C@H]2O5 [BUPRENORPHINE]
- Ki (Mu-type opioid receptor): 0.57 nM
- Ki [1]: 2 nM
